US20260097047A1, “Small molecule inhibitors of the ribosome biogenesis factor NVL2” (Board of Regents, The University of Texas System, priority 2023, published 2026)
pIC50: −log10 of the molar value. “Also recorded” adds a separate entry of the source.

Experiments:
p53 and p21 = p53 and p21 protein levels in HCT116 cells; assay type: cell-based, human
Source text: Inhibition of 60S ribosome biogenesis is known to induce the stability and upregulation of p53, which could serve as a potential pharmacodynamics marker for MM017 in HCT116 cells. […] We used PRISM (Broad Institute) to evaluate the selectivity of MM017 across 902 cancer cell lines and then correlated this selectivity to 1,215 clinical and pre-clinical compounds in the PRISM database. […] These observations indicate that oxaliplatin and carmofur, like MM017, target ribosome biogenesis.

[1] = tested on: 60S, 80S and 40S ribosomal subunits; assay: Polysome profiling; assay type: cell-based, human
Source text: NVL2 in yeast is essential for 60S ribosomal maturation, and therefore, we hypothesized that MM017 might decrease 60S ribosome synthesis. To test this hypothesis, we subjected either parental or NVL mutant cells treated with MM017 for different time points to polysome profiling. Polysome profiling uses a sucrose gradient to fractionate the complete ribosome (80S) from its components, the large (60S) and small (40S) subunit. […] Since the 80S is a complex of the 40S and 60S ribosomes, fewer 60S ribosomes are expected to result in increased free 40S subunits. All of these changes are the result of binding NVL2 since they were not present in the NVL2^R403W mutant cells. Taken together, these observations indicate that MM017 inhibits NVL2 leading to reduced 60S ribosome.
We next assessed the impact of disrupting NVL on the distribution of ribosomal species using polysome profiling. Addition of Ph-IAA to induce NVL degradation in NVL^AID/AID cells led to a time-dependent reduction in free 60S and 80S levels (based on absorbance at 260 nm) and a concomitant increase in 40S levels. […] The polysome profiles following NVL disruption in HCT116 cells appear similar to those reported in yeast with RIX7 mutations (37) or in human cells overexpressing catalytic mutants of NVL (38).

NVL = molecular target: T1, NVL (Homo sapiens, UniProt O15381); assay: Viability of NVL^AID/AID cells relying on ectopic human NVL (Ph-IAA); assay type: cell-based; set-up: expressed in transfected cells; host or cells: HCT116 NVL^AID/AID cells (viral infection; 'mock infected' control); conditions: endogenous NVL degraded with Ph-IAA; read-out: IC50, cells expressing ectopic human NVL
T1 sequence (O15381 1-856): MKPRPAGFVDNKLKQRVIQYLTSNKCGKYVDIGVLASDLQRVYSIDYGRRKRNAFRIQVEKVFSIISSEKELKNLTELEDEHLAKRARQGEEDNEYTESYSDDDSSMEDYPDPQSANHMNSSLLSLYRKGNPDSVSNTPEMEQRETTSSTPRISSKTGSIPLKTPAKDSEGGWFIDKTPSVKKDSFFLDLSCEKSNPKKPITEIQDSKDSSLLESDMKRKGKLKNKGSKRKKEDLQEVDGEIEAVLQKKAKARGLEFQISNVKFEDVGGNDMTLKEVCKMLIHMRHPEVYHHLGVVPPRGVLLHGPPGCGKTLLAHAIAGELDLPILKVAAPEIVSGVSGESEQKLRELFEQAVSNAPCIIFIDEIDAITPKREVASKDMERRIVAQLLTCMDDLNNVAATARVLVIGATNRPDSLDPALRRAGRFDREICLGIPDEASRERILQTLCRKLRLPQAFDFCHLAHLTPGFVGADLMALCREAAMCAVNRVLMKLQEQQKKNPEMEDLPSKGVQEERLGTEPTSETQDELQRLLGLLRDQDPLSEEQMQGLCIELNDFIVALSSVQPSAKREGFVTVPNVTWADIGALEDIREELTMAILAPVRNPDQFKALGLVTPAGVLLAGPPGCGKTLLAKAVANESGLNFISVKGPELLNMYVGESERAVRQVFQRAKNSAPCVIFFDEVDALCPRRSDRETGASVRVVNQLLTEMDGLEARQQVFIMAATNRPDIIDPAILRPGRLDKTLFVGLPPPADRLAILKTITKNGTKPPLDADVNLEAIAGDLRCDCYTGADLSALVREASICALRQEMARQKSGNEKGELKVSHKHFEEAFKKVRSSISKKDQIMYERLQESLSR
Source text: Next, we investigated whether inhibitors of NVL could inhibit the growth of cell line derived xenografts tumors in mice, and whether systemic inhibition of NVL leads to specific toxicities. […] To test the potency of MM927 against mouse NVL within the same cell type, we ectopically expressed either human or mouse NVL in NVL^AID/AID cells. Treatment with Ph-IAA degrades the endogenous protein so that the cells must rely solely on ectopically expressed NVL. In the mock infected cells, degrading NVL^AID/AID by the addition of Ph-IAA reduced cell viability as expected, and the viability was completely rescued by expression of either ectopic mouse or human NVL.

Compound	p53 levels in parental HCT116 cells (p53 and p21)	p53 and p21 abundance in NVL^P307T cells (p53 and p21; NVL^P307T)	polysome profile, NVL^P307T cells ([1]; NVL^P307T)	polysome profile, parental cells ([1]; parental HCT116)	pIC50 (NVL)
COCCN1C(=O)c2ccccc2Sc2cc(NC(=O)c3ccoc3)ccc21 [MM017]	upregulates p53 levels; also recorded: increase in p53 at 6 hours post treatment; also recorded: dose-dependent increase in the levels of p53	no changes in the abundance of either protein	no changes in polysome profiles	time-dependent decrease in the 60S and 80S ribosomal subunits	
CC#CCN1C(=O)c2ccc(F)cc2Sc2cc(NC(=O)c3ccc4oc(=O)n(C)c4c3)ccc21 [MM927, N-(10-(But-2-yn-1-yl)-3-fluoro-11-oxo-10,11-dihydrodibenzo[b,f][1,4]thiazepin-7-yl)-3-methyl-2-oxo-2,3-dihydrobenzo[d]oxazole-5-carboxamide]					7.29
